The values that follow come from patent publication US7229825B2, “Double-transfected cell line useful for the identification of transport inhibitors” (Deutches Krebsforschungszentrum Stiftung des Offentlichen …, priority 2001, dated 2007).

The target of one data set is human MRP2 (Homo sapiens, UniProt Q92887). The experiment in a line: ATP-dependent transport of [3H]BSP into inside-out membrane vesicles from HEK-MRP2 cells. The data set is classed as biochemical. On the procedure: Vesicle Transport Studies. Transport of [^3H]BSP into membrane vesicles was measured by the rapid filtration method (Keppler et al. 1998). Briefly, membrane vesicles (30 μg protein) were incubated in the presence of 4 mM ATP, 10 mM creatine phosphate, 100 μg/ml creatine kinase, and [^3H]BSP in an incubation buffer (250 mM sucrose, 10 mM Tris/HCl, pH 7.4) in a final volume of 55 μl at 37° C. Aliquots (15 μl) were taken at the indicated time points, diluted in 1 ml ice-cold incubation buffer, and immediately filtered through presoaked nitrocellulose membrane (0.2 μm pore size, Schleicher & Schüll, Dassel, Germany). Filters were rinsed twice with 5 ml of incubation buffer, dissolved in liquid scintillation fluid, and counted for radioactivity. In control experiments, ATP was replaced by an equal concentration of 5′-AMP. ATP-dependent transport was calculated by subtracting values obtained in the presence of 5′-AMP from those obtained in the presence of ATP.
human MRP2, sequence (Q92887 whole entry): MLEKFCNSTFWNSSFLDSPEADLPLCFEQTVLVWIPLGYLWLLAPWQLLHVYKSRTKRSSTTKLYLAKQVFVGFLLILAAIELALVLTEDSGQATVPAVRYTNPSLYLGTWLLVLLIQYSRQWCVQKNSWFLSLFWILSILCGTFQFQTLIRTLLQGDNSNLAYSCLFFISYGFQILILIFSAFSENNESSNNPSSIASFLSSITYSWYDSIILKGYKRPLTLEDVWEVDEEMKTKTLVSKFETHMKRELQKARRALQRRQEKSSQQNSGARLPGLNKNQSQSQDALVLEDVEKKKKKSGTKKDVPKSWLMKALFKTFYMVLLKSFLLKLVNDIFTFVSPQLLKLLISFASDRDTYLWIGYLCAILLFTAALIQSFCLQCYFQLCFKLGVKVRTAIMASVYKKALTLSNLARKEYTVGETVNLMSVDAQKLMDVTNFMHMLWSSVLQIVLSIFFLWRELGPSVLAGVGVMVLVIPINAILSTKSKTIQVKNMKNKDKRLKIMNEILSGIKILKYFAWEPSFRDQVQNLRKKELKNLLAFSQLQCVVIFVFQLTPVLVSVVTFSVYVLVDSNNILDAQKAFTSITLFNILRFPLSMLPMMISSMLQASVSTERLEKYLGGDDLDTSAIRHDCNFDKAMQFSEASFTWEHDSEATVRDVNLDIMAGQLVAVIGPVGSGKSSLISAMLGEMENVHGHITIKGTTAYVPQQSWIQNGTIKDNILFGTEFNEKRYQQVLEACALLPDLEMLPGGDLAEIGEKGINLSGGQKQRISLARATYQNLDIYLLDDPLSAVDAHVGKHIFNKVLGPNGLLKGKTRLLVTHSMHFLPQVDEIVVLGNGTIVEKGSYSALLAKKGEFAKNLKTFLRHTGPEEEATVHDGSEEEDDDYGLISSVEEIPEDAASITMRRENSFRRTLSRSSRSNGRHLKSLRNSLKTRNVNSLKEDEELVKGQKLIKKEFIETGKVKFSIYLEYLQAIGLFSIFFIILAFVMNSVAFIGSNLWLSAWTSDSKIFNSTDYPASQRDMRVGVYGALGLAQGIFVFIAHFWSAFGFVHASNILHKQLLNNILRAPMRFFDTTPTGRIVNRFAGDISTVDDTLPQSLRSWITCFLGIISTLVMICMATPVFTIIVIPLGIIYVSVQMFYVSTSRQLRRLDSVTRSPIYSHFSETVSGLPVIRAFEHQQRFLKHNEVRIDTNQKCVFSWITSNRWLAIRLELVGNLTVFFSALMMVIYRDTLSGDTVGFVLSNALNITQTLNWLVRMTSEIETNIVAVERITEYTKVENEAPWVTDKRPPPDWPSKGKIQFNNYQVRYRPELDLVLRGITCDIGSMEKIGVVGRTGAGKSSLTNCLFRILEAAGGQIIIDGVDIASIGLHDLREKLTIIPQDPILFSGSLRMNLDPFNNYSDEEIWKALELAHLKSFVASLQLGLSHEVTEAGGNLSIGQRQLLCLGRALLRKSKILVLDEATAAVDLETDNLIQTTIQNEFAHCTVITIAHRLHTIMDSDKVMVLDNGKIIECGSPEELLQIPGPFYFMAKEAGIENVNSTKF

Data set [1] deals with human OATP8 and MRP2 (MDCK-MRP2/OATP8 cells).
Protocol: For transport assays MDCKII cells were grown on Transwell membrane inserts (24 mm diameter, 0.4 μm pore size, Corning Costar) at confluency for 3 days and induced with 10 mM sodium butyrate for 24 h. […] After the time periods indicated, the radioactivity in the opposite compartments was measured. The intracellular accumulation of the radioactivity was determined by lysing the cells with 2 ml 0.2% SDS in water and measuring the radioactivity in cell lysates.
To study the transcellular transport of Fluo-3, cells were incubated with 2 μM Fluo-3 in the basolateral compartments at 37° C. for 30 min.
To study the transcellular transport of rifampicin, cells were incubated with 50 μM rifampicin in the basolateral compartments at 37° C. for 30 min. To determine the concentration of rifampicin in the apical compartments its absorption at 475 nm was measured with a spectrophotometer (Ultrospec III, Amersham-Pharmacia, Freiburg, Germany). A calibration curve for the calculation of the concentrations of rifampicin was determined in the concentration range between 1 and 50 μM.
The target in data set [2] is T1, human OATP8 (MDCK-OATP8 cells) (Homo sapiens, UniProt Q9NPD5).
T1 sequence (Q9NPD5 1-702): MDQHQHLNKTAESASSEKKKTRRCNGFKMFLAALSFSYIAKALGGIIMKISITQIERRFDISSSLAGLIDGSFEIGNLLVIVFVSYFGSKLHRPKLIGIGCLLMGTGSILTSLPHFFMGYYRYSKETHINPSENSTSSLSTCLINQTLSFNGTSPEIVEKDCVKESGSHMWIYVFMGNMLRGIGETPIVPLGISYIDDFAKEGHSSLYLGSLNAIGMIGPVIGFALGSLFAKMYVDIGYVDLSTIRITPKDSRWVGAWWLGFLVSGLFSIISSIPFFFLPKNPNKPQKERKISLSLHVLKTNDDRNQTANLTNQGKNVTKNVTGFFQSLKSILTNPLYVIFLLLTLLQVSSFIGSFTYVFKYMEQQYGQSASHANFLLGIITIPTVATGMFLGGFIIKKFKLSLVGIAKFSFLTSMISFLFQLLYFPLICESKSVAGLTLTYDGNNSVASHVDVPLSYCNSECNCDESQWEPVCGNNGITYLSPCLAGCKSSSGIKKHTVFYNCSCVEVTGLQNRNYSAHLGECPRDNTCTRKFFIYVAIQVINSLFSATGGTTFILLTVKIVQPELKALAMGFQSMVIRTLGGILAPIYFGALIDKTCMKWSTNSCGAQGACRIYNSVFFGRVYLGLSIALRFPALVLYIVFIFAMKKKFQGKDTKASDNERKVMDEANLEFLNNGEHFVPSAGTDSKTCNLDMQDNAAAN
The experiment in a line: [3H]BSP accumulation and efflux in MDCK-OATP8 cells on Transwell membrane inserts. On the set-up: expressed in transfected cells. Format: cell-based.

The test system of data set [3] is OATP2 and MRP2 (MDCK-OATP2/MRP2 cells). As to the kind of experiment: Transcellular transport of BSP by MDCK-OATP2/MRP2 cells. The data set is classed as cell-based, human. The note with it: 1 μM [3H]BSP basolateral, 30 min, 37° C.; MDCK-OATP2/MRP2 vs MDCK-Co and MDCK-OATP2. From the text: FIG. 13: Transcellular transport of BSP by MDCK-OATP2/MRP2 cells.
Proteins were separated by SDS-PAGE (7.5% gels).

For the next data set, the system named is MDCK-MRP2/OATP8 cells. As to the kind of experiment: Radio-HPLC analysis of [3H]BSP after transport by MDCK-MRP2/OATP8 cells. The note with it: 1 μM [3H]BSP basolateral, 30 min, acivicin 5 mM. Format: in vitro ADME. On the procedure:
HPLC Analysis of [^3H]BSP. MDCK-MRP2/OATP8 cells grown on Transwell membrane inserts were incubated with 1 μM [^3H]BSP in the basolateral compartment for 30 min at 37° C. after a pre-incubation with 5 mM acivicin, an inhibitor of g-glutamyltransferase (Allen et al. 1980), in both compartments for 30 min at 37° C. The radioactivity in the apical compartment and in the cell lysate was analyzed by HPLC. Reversed-phase HPLC analyses on a C18 Hypersil column ([…] particles; Shandon, Runcorn, UK) were performed as described (Cui et al. 2001) using a linear gradient elution from 100% buffer A (45% methanol/55% water containing […] tetrabutylammonium hydroxide at pH 6.0) to 100% buffer B (90% methanol/10% water containing 2 mM tetrabutylammonium hydroxide at pH 6.0) at a flow rate of 1 ml/min. [^3H]BSP-SG was synthesized for the HPLC analyses by incubating 1 mM GSH, 0.4 mM [^3H]BSP (1 μCi), and 5 mM acivicin with 350 μl mouse liver cytosol in a final volume of 500 μl for 1 h at 37° C. After deproteinization with 3 volume of methanol 200 μl supernatant was analyzed by HPLC as described above.

With `O=C1OC(c2ccc(O)c(S(=O)(=O)O)c2)(c2ccc(O)c(S(=O)(=O)O)c2)c2c(Br)c(Br)c(Br)c(Br)c21` [BSP, sulfobromophthalein], at human MRP2 (1 μM, ATP vs 5'-AMP), the “transport of [3H]BSP into membrane vesicles from HEK-MRP2 cells” value is “transported ATP-dependently”. For the same molecule, the “accumulation of [3H]BSP in membrane vesicles” value on human MRP2 (HEK-MRP2 vs control-transfected HEK-Co vesicles) is listed as “significantly higher”. Also, in data set [1], the “intracellular [3H]BSP level remaining after 30 min efflux” value is recorded as “significantly lower” and the “transcellular transport (basolateral to apical)” value was “marked transcellular transport”. For the same molecule, the “rate of transfer from the basolateral to the apical compartment, double-transfected versus single-transfected cells” value in data set [1] (human, pH 7.3) is given as “at least 6 times”. Further, the “intracellular accumulation of [3H]BSP” value in data set [2] (1 μM basolateral, MDCK-OATP8 or MDCK-MRP2/OATP8 vs MDCK-Co and MDCK-MRP2 cells) is “significantly higher”. Besides, in data set [2] (MDCK-OATP8 cells loaded with 1 μM for 30 min, then 30 min efflux), the “efflux of [3H]BSP, route of release” value is reported as “mainly across the basolateral membrane”. Besides, the “rate of transcellular transport of BSP” value in data set [3] is “significantly higher”. Further, the “radioactivity in the apical compartment and in the cells with the retention time of unconjugated [3H]BSP” value in the data set with MDCK-MRP2/OATP8 cells is > 98%.
